System: 653999-131-R-J2-PDC complex spheroids, growth inhibition
Assay: Anticancer human tumor 653999-131-R-J2-PDC patient-derived lung adenocarcinoma cell line growth inhibition [RAS]
Conditions: for IC50: curve of first compound; for viability, T/C: stronger effect = lower value; active = viability on the fitted dose curve at most 10% of control; inactive = the rest
Summary of the method: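 Tumour cells grown as complex spheroids with HUVEC endothelial cells and mesenchymal stem cells, treated with RAS pathway inhibitor combinations. Each agent spans half-log steps from near clinical Cmax, or 10 microM where Cmax is unknown.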
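Also: spheroids exposed to the agents for seven days before the readout.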

CC1(C)CCC(Nc2ncc(C(F)(F)F)c(-c3c[nH]c4c(P(C)(C)=O)c(C#N)ccc34)n2)CN1 (configuration not stated) + CCn1c(-c2cc(N3CCN(C)CC3)cnc2C(C)OC)c2c3cc(ccc31)-c1csc(n1)CC(NC(=O)C1CC1C)C(=O)N1CCCC(N1)C(=O)OCC(C)(C)C2
> 300 nM: IC50 (second compound 0.000949 µM)
< 0.949 nM: IC50 (second compound 0.003 µM) | IC50 (second compound 0.00949 µM) | IC50 (second compound 0.03 µM) | IC50 (second compound 0.0949 µM) | IC50 (second compound 0.3 µM)
inactive: viability, T/C (second compound 0.000949 µM, first compound 0.000949 µM) 60.9% | viability, T/C (second compound 0.000949 µM, first compound 0.003 µM) 58.4% | viability, T/C (second compound 0.000949 µM, first compound 0.00949 µM) 56.4% | viability, T/C (second compound 0.000949 µM, first compound 0.03 µM) 45.1% | viability, T/C (second compound 0.000949 µM, first compound 0.0949 µM) 56.4% | viability, T/C (second compound 0.000949 µM, first compound 0.3 µM) 61.2% | viability, T/C (second compound 0.003 µM, first compound 0.000949 µM) 51% | viability, T/C (second compound 0.003 µM, first compound 0.003 µM) 41.6% | viability, T/C (second compound 0.003 µM, first compound 0.00949 µM) 40.8% | viability, T/C (second compound 0.003 µM, first compound 0.03 µM) 44.7% | viability, T/C (second compound 0.003 µM, first compound 0.0949 µM) 41.1% | viability, T/C (second compound 0.003 µM, first compound 0.3 µM) 38.2% | viability, T/C (second compound 0.00949 µM, first compound 0.000949 µM) 35.9% | viability, T/C (second compound 0.00949 µM, first compound 0.003 µM) 24.3% | viability, T/C (second compound 0.00949 µM, first compound 0.00949 µM) 21.4% | viability, T/C (second compound 0.00949 µM, first compound 0.03 µM) 21.6% | viability, T/C (second compound 0.00949 µM, first compound 0.0949 µM) 27.6% | viability, T/C (second compound 0.00949 µM, first compound 0.3 µM) 22.3% | viability, T/C (second compound 0.03 µM, first compound 0.000949 µM) 17.8% | viability, T/C (second compound 0.03 µM, first compound 0.003 µM) 18.3% | viability, T/C (second compound 0.03 µM, first compound 0.00949 µM) 17.4% | viability, T/C (second compound 0.03 µM, first compound 0.03 µM) 13.4% | viability, T/C (second compound 0.03 µM, first compound 0.0949 µM) 15.9% | viability, T/C (second compound 0.03 µM, first compound 0.3 µM) 16.5% | viability, T/C (second compound 0.0949 µM, first compound 0.000949 µM) 16.4% | viability, T/C (second compound 0.0949 µM, first compound 0.003 µM) 17.8% | viability, T/C (second compound 0.0949 µM, first compound 0.00949 µM) 14.5% | viability, T/C (second compound 0.0949 µM, first compound 0.03 µM) 14.4% | viability, T/C (second compound 0.0949 µM, first compound 0.0949 µM) 14.1% | viability, T/C (second compound 0.0949 µM, first compound 0.3 µM) 16.3% | viability, T/C (second compound 0.3 µM, first compound 0.000949 µM) 14.5% | viability, T/C (second compound 0.3 µM, first compound 0.003 µM) 15.2% | viability, T/C (second compound 0.3 µM, first compound 0.00949 µM) 14.7% | viability, T/C (second compound 0.3 µM, first compound 0.03 µM) 14.8% | viability, T/C (second compound 0.3 µM, first compound 0.0949 µM) 13.7% | viability, T/C (second compound 0.3 µM, first compound 0.3 µM) 15.7%
